Assay results: publication PMC6100082, “Pyridine-Ureas as Potential Anticancer Agents: Synthesis and In Vitro Biological Evaluation” (Molecules : A Journal of Synthetic Chemistry and Natural …, 2018)

Key:
Type in all cases: cell-based, human
MCF7 = test: NCI one-dose SRB assay (Breast Cancer)
Protocol: (§1) The structures of all the newly prepared pyridine-ureas 8a–n were submitted to the National Cancer Institute (NCI) Developmental Therapeutic Program. Eight compounds 8b, 8d, 8e, 8i, 8j and 8l–n were selected to be examined for their in vitro growth inhibitory activity. The anticancer assays were carried out according to the protocol of the Drug Evaluation Branch, NCI, Bethesda. The selected pyridine-ureas were tested at one dose primary anticancer assay against a panel of approximately 58 cancer lines (concentration 10^−5 M). The tested human cancer cell lines emerged from nine different cancer subtypes: leukemia, colon, melanoma, ovarian, lung, CNS, renal, breast and prostate cancers. The sulforhodamine B (SRB) protein assay was adopted to estimate the cell viability and growth. The results were reported as mean-graph of the percentage growth of the treated cells, and presented as percentage growth inhibition (GI%) caused by the test compounds (Table 2).
(§2) The anticancer assays were performed in accordance with the protocol of the Drug Evaluation Branch, NCI, Bethesda. A 48 h drug exposure protocol was used and sulforhodamine B (SRB) protein assay was applied to estimate the cell viability and growth, as reported earlier.

T-47D = test: NCI one-dose SRB assay (Breast Cancer)
Protocol: as §1, §2

MDA-MB-468 = test: NCI one-dose SRB assay (Breast Cancer)
Protocol: as §1, §2

BT-549 = test: NCI one-dose SRB assay (Breast Cancer)
Protocol: as §1, §2

MDA-MB-231 = test: NCI one-dose SRB assay (Breast Cancer)
Protocol: as §1, §2

HS 578T = test: NCI one-dose SRB assay (Breast Cancer)
Protocol: as §1, §2

SF-268 = test: NCI one-dose SRB assay (CNS Cancer)
Protocol: as §1, §2

U251 = test: NCI one-dose SRB assay (CNS Cancer)
Protocol: as §1, §2

SF-539 = test: NCI one-dose SRB assay (CNS Cancer)
Protocol: as §1, §2

SF-295 = test: NCI one-dose SRB assay (CNS Cancer)
Protocol: as §1, §2

SNB-75 = test: NCI one-dose SRB assay (CNS Cancer)
Protocol: as §1, §2

SNB-19 = test: NCI one-dose SRB assay (CNS Cancer)
Protocol: as §1, §2

SK-OV-3 = test: NCI one-dose SRB assay (Ovarian Cancer)
Protocol: as §1, §2

OVCAR-4 = test: NCI one-dose SRB assay (Ovarian Cancer)
Protocol: as §1, §2

NCI/ADR-RES = test: NCI one-dose SRB assay (Ovarian Cancer)
Protocol: as §1, §2

OVCAR-8 = test: NCI one-dose SRB assay (Ovarian Cancer)
Protocol: as §1, §2

OVCAR-3 = test: NCI one-dose SRB assay (Ovarian Cancer)
Protocol: as §1, §2

OVCAR-5 = test: NCI one-dose SRB assay (Ovarian Cancer)
Protocol: as §1, §2

IGROV1 = test: NCI one-dose SRB assay (Ovarian Cancer)
Protocol: as §1, §2

LOX IMVI = test: NCI one-dose SRB assay (Melanoma)
Protocol: as §1, §2

SK-MEL-5 = test: NCI one-dose SRB assay (Melanoma)
Protocol: as §1, §2

UACC-62 = test: NCI one-dose SRB assay (Melanoma)
Protocol: as §1, §2

MDA-MB-435 = test: NCI one-dose SRB assay (Melanoma)
Protocol: as §1, §2

SK-MEL-2 = test: NCI one-dose SRB assay (Melanoma)
Protocol: as §1, §2

MALME-3M = test: NCI one-dose SRB assay (Melanoma)
Protocol: as §1, §2

M14 = test: NCI one-dose SRB assay (Melanoma)
Protocol: as §1, §2

[1] = Homo sapiens, 10 μM, read-out: Percentage growth inhibition (GI%)

Question: With `COc1cccc(NC(=O)Nc2ccc(-c3ccc(OC)c(OC)c3)nc2C)c1` [Compound 8m, 1-(6-(3,4-Dimethoxyphenyl)-2-methylpyridin-3-yl)-3-(3-methoxyphenyl) Urea] as the compound, how does the inhibition at 10 µM (MCF7; Homo sapiens, MCF7, 10 μM, read-out: Percentage growth inhibition (GI%)) read?
Answer: Its inhibition at 10 µM is 10%.

Question: What about the “Growth Percent” value (MCF7; MCF7, 1.00E-5 Molar) of the same compound?
Answer: The value was 90.01%.

Question: And the “Growth Percent” value (T-47D; 1.00E-5 Molar)?
Answer: The value was 81.11%.

Question: What about the inhibition at 10 µM (T-47D; Homo sapiens, T47D, 10 μM, read-out: Percentage growth inhibition (GI%)) of the same compound?
Answer: Its inhibition at 10 µM is 19%.

Question: And the inhibition at 10 µM (MDA-MB-468; Homo sapiens, MDA-MB-468, 10 μM, read-out: Percentage growth inhibition (GI%))?
Answer: The inhibition at 10 µM was under 10%.

Question: And the “Growth Percent” value (MDA-MB-468; MDA-MB-468, 1.00E-5 Molar)?
Answer: The value was 99.00%.

Question: And the “Growth Percent” value (BT-549; BT-549, 1.00E-5 Molar)?
Answer: Its value is 87.21%.

Question: What about the inhibition at 10 µM (BT-549; Homo sapiens, BT-549, 10 μM, read-out: Percentage growth inhibition (GI%)) of the same compound?
Answer: Its inhibition at 10 µM is 13%.

Question: And the inhibition at 10 µM (MDA-MB-231; Homo sapiens, MDA-MB-231, 10 μM, read-out: Percentage growth inhibition (GI%))?
Answer: The inhibition at 10 µM was under 10%.

Question: What about the “Growth Percent” value (MDA-MB-231; MDA-MB-231/ATCC, 1.00E-5 Molar) of the same compound?
Answer: The value was 106.37%.

Question: And the “Growth Percent” value (HS 578T; 1.00E-5 Molar)?
Answer: The value was 99.31%.

Question: And the inhibition at 10 µM (HS 578T; [1])?
Answer: The inhibition at 10 µM was under 10%.

Question: What about the inhibition at 10 µM (SF-268; Homo sapiens, SF-268, 10 μM, read-out: Percentage growth inhibition (GI%)) of the same compound?
Answer: Its inhibition at 10 µM is under 10%.

Question: What about the “Growth Percent” value (SF-268; SF-268, 1.00E-5 Molar) of the same compound?
Answer: The value was 94.56%.

Question: What about the inhibition at 10 µM (U251; Homo sapiens, U-251, U251, 10 μM, read-out: Percentage growth inhibition (GI%)) of the same compound?
Answer: The inhibition at 10 µM was under 10%.

Question: What about the “Growth Percent” value (U251; U251, 1.00E-5 Molar) of the same compound?
Answer: Its value is 94.15%.

Question: And the inhibition at 10 µM (SF-539; Homo sapiens, SF-539, 10 μM, read-out: Percentage growth inhibition (GI%))?
Answer: The inhibition at 10 µM was under 10%.

Question: What about the “Growth Percent” value (SF-539; SF-539, 1.00E-5 Molar) of the same compound?
Answer: The value was 93.97%.

Question: What about the inhibition at 10 µM (SF-295; Homo sapiens, SF-295, 10 μM, read-out: Percentage growth inhibition (GI%)) of the same compound?
Answer: The inhibition at 10 µM was under 10%.

Question: And the “Growth Percent” value (SF-295; SF-295, 1.00E-5 Molar)?
Answer: Its value is 99.68%.

Question: What about the inhibition at 10 µM (SNB-75; Homo sapiens, SNB-75, 10 μM, read-out: Percentage growth inhibition (GI%)) of the same compound?
Answer: Its inhibition at 10 µM is under 10%.

Question: And the “Growth Percent” value (SNB-75; SNB-75, 1.00E-5 Molar)?
Answer: The value was 104.39%.

Question: What about the inhibition at 10 µM (SNB-19; Homo sapiens, SNB-19, 10 μM, read-out: Percentage growth inhibition (GI%)) of the same compound?
Answer: The inhibition at 10 µM was under 10%.

Question: What about the “Growth Percent” value (SNB-19; SNB-19, 1.00E-5 Molar) of the same compound?
Answer: The value was 115.50%.

Question: What about the inhibition at 10 µM (SK-OV-3; Homo sapiens, SK-OV-3, 10 μM, read-out: Percentage growth inhibition (GI%)) of the same compound?
Answer: Its inhibition at 10 µM is under 10%.

Question: And the “Growth Percent” value (SK-OV-3; SK-OV-3, 1.00E-5 Molar)?
Answer: The value was 99.49%.

Question: What about the inhibition at 10 µM (OVCAR-4; Homo sapiens, OVCAR-4, 10 μM, read-out: Percentage growth inhibition (GI%)) of the same compound?
Answer: The inhibition at 10 µM was under 10%.

Question: What about the “Growth Percent” value (OVCAR-4; OVCAR-4, 1.00E-5 Molar) of the same compound?
Answer: Its value is 126.33%.

Question: And the “Growth Percent” value (NCI/ADR-RES; 1.00E-5 Molar)?
Answer: Its value is 92.25%.

Question: And the inhibition at 10 µM (NCI/ADR-RES; [1])?
Answer: Its inhibition at 10 µM is under 10%.

Question: And the inhibition at 10 µM (OVCAR-8; Homo sapiens, OVCAR-8, 10 μM, read-out: Percentage growth inhibition (GI%))?
Answer: The inhibition at 10 µM was under 10%.

Question: What about the “Growth Percent” value (OVCAR-8; OVCAR-8, 1.00E-5 Molar) of the same compound?
Answer: Its value is 102.37%.

Question: And the inhibition at 10 µM (OVCAR-3; Homo sapiens, OVCAR-3, 10 μM, read-out: Percentage growth inhibition (GI%))?
Answer: Its inhibition at 10 µM is under 10%.

Question: What about the “Growth Percent” value (OVCAR-3; OVCAR-3, 1.00E-5 Molar) of the same compound?
Answer: The value was 101.69%.

Question: And the inhibition at 10 µM (OVCAR-5; Homo sapiens, OVCAR-5, 10 μM, read-out: Percentage growth inhibition (GI%))?
Answer: Its inhibition at 10 µM is under 10%.

Question: And the “Growth Percent” value (OVCAR-5; OVCAR-5, 1.00E-5 Molar)?
Answer: The value was 104.54%.

Question: What about the inhibition at 10 µM (IGROV1; Homo sapiens, IGROV-1, IGROV1, 10 μM, read-out: Percentage growth inhibition (GI%)) of the same compound?
Answer: The inhibition at 10 µM was under 10%.

Question: And the “Growth Percent” value (IGROV1; IGROV1, 1.00E-5 Molar)?
Answer: The value was 112.08%.

Question: What about the “Growth Percent” value (LOX IMVI; 1.00E-5 Molar) of the same compound?
Answer: The value was 92.56%.

Question: And the inhibition at 10 µM (LOX IMVI; [1])?
Answer: The inhibition at 10 µM was under 10%.

Question: What about the inhibition at 10 µM (SK-MEL-5; Homo sapiens, SK-MEL-5, 10 μM, read-out: Percentage growth inhibition (GI%)) of the same compound?
Answer: Its inhibition at 10 µM is 16%.

Question: And the “Growth Percent” value (SK-MEL-5; SK-MEL-5, 1.00E-5 Molar)?
Answer: The value was 84.32%.

Question: And the inhibition at 10 µM (UACC-62; Homo sapiens, UACC-62, 10 μM, read-out: Percentage growth inhibition (GI%))?
Answer: The inhibition at 10 µM was under 10%.

Question: And the “Growth Percent” value (UACC-62; UACC-62, 1.00E-5 Molar)?
Answer: Its value is 93.89%.

Question: What about the inhibition at 10 µM (MDA-MB-435; Homo sapiens, MDA-MB-435, 10 μM, read-out: Percentage growth inhibition (GI%)) of the same compound?
Answer: Its inhibition at 10 µM is under 10%.

Question: And the “Growth Percent” value (MDA-MB-435; MDA-MB-435, 1.00E-5 Molar)?
Answer: The value was 100.45%.

Question: What about the inhibition at 10 µM (SK-MEL-2; Homo sapiens, SK-MEL-2, 10 μM, read-out: Percentage growth inhibition (GI%)) of the same compound?
Answer: The inhibition at 10 µM was 13%.

Question: And the “Growth Percent” value (SK-MEL-2; SK-MEL-2, 1.00E-5 Molar)?
Answer: Its value is 87.95%.

Question: What about the “Growth Percent” value (MALME-3M; 1.00E-5 Molar) of the same compound?
Answer: Its value is 92.61%.

Question: What about the inhibition at 10 µM (MALME-3M; [1]) of the same compound?
Answer: Its inhibition at 10 µM is under 10%.

Question: What about the inhibition at 10 µM (M14; Homo sapiens, M14, 10 μM, read-out: Percentage growth inhibition (GI%)) of the same compound?
Answer: The inhibition at 10 µM was 10%.

Question: And the “Growth Percent” value (M14; M14, 1.00E-5 Molar)?
Answer: The value was 90.93%.
